Data published in ChEMBL document CHEMBL1135380, “Synthesis and structure-activity relationship of 2-(aminoalkyl)-2,3,3a,8-tetrahydrodibenzo[c,f]isoxazolo[2,3-a]azepine derivatives: a novel series of 5-HT(2A/2C) receptor antagonists. Part 1” (Bioorg Med Chem Lett, 2002).
pIC50: −log10 of the molar value.

What was measured:
Histamine H1 receptor = Histamine H1 receptor (Homo sapiens, UniProt P35367); assay: Binding affinity for human cloned Histamine H1 receptor expressed in CHO cells using [3H]pyrilamine as radioligand; format: cell-based
Sequence of Histamine H1 receptor (P35367 whole entry): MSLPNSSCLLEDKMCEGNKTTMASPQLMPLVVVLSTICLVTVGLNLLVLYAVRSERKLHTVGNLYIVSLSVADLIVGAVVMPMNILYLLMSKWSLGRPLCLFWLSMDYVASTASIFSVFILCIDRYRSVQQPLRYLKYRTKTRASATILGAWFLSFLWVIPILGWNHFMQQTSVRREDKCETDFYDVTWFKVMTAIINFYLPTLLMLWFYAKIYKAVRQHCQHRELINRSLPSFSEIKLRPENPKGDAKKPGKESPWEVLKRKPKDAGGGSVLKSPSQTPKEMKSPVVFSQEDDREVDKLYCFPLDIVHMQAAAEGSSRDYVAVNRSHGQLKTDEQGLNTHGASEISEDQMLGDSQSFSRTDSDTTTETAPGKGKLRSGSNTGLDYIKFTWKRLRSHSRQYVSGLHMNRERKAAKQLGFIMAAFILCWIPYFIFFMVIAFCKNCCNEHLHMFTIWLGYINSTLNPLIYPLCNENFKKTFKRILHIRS

[1] = biological target: 5-hydroxytryptamine receptor 2A (Homo sapiens, UniProt P28223); assay: biochemical; format: cell-based, L929
Sequence of 5-hydroxytryptamine receptor 2A (P28223 whole entry): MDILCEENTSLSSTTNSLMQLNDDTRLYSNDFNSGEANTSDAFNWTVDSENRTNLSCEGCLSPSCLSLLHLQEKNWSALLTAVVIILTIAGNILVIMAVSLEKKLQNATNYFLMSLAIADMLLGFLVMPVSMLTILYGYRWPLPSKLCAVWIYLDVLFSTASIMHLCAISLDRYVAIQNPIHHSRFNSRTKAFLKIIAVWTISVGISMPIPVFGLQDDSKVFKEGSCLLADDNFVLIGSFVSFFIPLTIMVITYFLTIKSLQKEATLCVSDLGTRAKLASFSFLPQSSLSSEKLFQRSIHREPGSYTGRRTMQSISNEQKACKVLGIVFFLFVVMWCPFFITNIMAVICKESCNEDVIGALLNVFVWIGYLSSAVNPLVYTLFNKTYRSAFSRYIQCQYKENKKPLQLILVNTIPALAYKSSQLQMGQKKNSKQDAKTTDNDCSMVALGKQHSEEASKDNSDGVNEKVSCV
Description: Binding affinity for human cloned 5-hydroxytryptamine 2A receptor expressed in L929 cells using [125I]R91150 as radioligand

[2] = biological target: T1, 5-hydroxytryptamine receptor 2C (Homo sapiens, UniProt P28335); assay: Binding affinity for human cloned 5-hydroxytryptamine 2C receptor expressed in CHO cells using [3H]mesulergine as radioligand; format: cell-based
T1 sequence (P28335 whole entry): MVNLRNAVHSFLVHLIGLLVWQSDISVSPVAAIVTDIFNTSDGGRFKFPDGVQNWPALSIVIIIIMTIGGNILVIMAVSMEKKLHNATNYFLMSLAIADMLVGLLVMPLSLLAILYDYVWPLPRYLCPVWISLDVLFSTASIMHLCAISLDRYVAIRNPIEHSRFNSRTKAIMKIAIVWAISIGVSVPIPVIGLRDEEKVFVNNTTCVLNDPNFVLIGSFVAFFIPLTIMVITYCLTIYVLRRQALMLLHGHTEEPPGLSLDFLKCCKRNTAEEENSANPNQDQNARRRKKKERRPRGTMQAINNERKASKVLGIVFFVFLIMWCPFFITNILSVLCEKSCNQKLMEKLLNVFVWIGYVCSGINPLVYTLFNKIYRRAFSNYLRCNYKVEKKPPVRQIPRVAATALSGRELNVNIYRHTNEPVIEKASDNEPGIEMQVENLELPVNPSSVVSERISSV

[3] = biological target: T2, 5-hydroxytryptamine receptor 2C (Rattus norvegicus) (UniProt P08909); assay: In vivo activity in rat mCPP challenge test following p.o. administration.; format: functional, organism-based
T2 sequence (whole entry): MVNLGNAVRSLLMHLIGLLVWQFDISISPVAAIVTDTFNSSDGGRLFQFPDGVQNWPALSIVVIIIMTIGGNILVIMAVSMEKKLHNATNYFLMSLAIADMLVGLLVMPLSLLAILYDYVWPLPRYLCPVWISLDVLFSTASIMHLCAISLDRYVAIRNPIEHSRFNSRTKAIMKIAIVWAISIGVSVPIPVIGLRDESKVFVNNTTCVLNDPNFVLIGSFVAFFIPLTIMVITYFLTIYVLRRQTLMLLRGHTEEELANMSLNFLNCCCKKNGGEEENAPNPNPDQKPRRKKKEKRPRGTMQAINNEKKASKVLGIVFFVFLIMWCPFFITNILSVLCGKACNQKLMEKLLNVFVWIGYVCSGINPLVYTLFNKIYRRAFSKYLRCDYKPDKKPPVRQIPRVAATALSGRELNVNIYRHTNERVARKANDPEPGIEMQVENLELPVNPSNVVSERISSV

D(2) dopamine receptor [4] = biological target: D(2) dopamine receptor (Homo sapiens, UniProt P14416); assay: Binding affinity for human cloned Dopamine receptor D2L
Sequence of D(2) dopamine receptor (Homo sapiens, UniProt P14416) (P14416 whole entry): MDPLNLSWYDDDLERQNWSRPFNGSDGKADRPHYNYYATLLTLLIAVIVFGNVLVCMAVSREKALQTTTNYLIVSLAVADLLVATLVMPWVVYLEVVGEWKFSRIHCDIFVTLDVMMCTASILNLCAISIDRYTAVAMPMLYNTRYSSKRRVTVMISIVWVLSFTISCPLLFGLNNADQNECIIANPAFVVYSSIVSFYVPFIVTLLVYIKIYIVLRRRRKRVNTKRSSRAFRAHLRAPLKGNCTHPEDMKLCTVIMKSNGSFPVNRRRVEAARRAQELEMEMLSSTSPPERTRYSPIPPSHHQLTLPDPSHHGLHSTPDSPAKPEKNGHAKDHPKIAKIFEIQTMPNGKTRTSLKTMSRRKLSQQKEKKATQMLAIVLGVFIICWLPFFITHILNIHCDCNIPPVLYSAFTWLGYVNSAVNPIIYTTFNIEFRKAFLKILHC

[5] = biological target: 5-hydroxytryptamine receptor 1D (Homo sapiens, UniProt P28221); assay: Binding affinity for human cloned 5-hydroxytryptamine 1D receptor
Sequence of 5-hydroxytryptamine receptor 1D (P28221 whole entry): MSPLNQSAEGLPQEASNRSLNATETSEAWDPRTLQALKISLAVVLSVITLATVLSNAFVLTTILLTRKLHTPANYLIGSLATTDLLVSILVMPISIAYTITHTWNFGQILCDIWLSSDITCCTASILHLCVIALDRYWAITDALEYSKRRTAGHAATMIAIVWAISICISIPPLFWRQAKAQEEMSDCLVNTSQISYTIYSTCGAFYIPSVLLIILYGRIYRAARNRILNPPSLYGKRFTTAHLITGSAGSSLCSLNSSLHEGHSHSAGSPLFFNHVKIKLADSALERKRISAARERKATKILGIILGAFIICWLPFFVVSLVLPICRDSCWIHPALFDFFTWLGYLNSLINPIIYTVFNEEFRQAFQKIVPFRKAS

Rattus norvegicus = assay: In vivo activity in mCPP challenge test were performed in male Wistar rats by subcutaneous administration; format: functional
[6] = biological target: T3, Alpha-2C adrenergic receptor (Homo sapiens, UniProt P18825); assay: Binding affinity for human cloned Alpha-2C adrenergic receptor
T3 sequence (P18825 whole entry): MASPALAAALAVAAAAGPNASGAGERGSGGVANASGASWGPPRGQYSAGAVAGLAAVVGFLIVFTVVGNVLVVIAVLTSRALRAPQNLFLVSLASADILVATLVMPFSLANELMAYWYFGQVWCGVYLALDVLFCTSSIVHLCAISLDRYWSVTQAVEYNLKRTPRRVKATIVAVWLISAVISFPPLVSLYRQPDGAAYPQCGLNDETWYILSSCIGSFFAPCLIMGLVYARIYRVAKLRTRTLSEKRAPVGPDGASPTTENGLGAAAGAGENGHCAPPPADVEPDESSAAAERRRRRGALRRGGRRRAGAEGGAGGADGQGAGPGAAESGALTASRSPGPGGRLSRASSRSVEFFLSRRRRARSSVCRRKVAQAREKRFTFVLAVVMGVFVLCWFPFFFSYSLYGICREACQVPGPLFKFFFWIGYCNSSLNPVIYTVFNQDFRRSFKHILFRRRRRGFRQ

[7] = biological target: T4, 5-hydroxytryptamine receptor 1A (Homo sapiens, UniProt P08908); assay: Binding affinity for human cloned 5-hydroxytryptamine 1A receptor
T4 sequence (P08908 whole entry): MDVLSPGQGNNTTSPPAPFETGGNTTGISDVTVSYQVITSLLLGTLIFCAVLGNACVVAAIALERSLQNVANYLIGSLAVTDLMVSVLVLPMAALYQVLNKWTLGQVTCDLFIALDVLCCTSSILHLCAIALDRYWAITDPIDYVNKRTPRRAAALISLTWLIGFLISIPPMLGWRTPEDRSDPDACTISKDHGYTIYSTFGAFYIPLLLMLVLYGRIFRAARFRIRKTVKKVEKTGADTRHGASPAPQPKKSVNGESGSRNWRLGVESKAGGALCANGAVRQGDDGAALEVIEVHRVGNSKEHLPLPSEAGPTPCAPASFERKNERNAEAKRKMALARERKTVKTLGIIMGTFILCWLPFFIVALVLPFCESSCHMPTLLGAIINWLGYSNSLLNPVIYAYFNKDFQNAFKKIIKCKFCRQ

D(3) dopamine receptor = D(3) dopamine receptor (Homo sapiens, UniProt P35462); assay: Binding affinity for human cloned Dopamine receptor D3
Sequence of D(3) dopamine receptor (P35462 whole entry): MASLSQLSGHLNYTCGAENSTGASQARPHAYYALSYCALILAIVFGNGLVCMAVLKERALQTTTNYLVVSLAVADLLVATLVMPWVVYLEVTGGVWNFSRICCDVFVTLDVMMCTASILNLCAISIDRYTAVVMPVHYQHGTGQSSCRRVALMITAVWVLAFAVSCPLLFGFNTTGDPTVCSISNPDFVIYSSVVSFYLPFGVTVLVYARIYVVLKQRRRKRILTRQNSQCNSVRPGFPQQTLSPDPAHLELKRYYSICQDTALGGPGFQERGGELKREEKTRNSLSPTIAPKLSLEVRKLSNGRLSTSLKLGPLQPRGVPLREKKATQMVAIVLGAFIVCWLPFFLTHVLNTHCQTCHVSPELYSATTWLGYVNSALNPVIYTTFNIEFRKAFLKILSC

[8] = biological target: T5, Alpha-2A adrenergic receptor (Homo sapiens, UniProt P08913); assay: Binding affinity for human cloned Alpha-2A adrenergic receptor
T5 sequence (P08913 whole entry): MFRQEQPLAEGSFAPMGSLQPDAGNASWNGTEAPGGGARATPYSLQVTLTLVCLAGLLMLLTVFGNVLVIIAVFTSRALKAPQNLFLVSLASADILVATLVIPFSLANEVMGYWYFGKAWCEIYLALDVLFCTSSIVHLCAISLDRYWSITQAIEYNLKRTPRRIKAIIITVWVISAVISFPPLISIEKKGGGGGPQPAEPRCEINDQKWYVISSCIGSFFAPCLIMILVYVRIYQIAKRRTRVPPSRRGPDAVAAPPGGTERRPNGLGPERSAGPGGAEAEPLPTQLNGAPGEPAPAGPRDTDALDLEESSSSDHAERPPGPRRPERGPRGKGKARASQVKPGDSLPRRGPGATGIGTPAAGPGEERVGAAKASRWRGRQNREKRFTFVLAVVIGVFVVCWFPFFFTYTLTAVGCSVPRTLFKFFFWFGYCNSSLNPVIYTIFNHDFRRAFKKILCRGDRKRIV

D(2) dopamine receptor [9] = biological target: D(2) dopamine receptor (Rattus norvegicus, UniProt P61169); assay: Binding affinity for rat Dopamine receptor D2
Sequence of D(2) dopamine receptor (Rattus norvegicus, UniProt P61169) (P61169 whole entry): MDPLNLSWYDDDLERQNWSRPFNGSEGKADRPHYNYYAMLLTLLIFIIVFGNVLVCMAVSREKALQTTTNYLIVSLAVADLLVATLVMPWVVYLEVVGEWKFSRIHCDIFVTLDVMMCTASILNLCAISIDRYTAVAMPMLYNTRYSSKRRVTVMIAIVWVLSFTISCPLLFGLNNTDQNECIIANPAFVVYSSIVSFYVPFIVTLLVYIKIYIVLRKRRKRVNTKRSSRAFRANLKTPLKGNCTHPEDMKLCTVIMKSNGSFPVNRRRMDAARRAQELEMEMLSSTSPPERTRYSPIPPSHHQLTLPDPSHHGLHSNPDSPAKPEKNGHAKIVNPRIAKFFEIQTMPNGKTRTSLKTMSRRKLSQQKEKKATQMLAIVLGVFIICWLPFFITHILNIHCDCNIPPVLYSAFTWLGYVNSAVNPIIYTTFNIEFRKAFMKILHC

[10] = biological target: T6, Alpha-1A adrenergic receptor (Homo sapiens, UniProt P35348); assay: Binding affinity for human cloned Alpha-1A adrenergic receptor
T6 sequence (P35348 whole entry): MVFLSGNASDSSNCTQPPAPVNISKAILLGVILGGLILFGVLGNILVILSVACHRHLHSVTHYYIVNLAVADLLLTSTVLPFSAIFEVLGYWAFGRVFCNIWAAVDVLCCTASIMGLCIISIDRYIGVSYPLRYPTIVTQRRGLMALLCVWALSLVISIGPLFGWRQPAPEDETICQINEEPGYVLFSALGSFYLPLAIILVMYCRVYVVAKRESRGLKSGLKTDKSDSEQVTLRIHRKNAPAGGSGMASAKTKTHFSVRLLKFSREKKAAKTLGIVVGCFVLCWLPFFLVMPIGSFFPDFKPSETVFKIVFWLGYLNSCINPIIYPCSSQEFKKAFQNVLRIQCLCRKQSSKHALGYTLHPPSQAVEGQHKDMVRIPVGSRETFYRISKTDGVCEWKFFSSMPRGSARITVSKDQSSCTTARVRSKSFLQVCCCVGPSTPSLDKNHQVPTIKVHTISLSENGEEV

[11] = Rattus norvegicus, sc, read-out: ED50

| SMILES | pIC50 (Histamine H1 receptor) | pIC50 [1] | pIC50 [2] | ED50 [3] [mg/kg] | ED50 (Rattus norvegicus; [11]) [mg/kg] | further results |
| --- | --- | --- | --- | --- | --- | --- |
| c1ccc(N2CCN(CC3CC4c5ccccc5Cc5ccccc5N4O3)CC2)cc1 (stereo unspecified) | < 6.00 | < 6.00 | < 6.00 |  |  |  |
| CN1CCN2c3ccccc3Cc3ccccc3C2C1 (stereo unspecified) [MIANSERIN] |  |  |  | 2.5 | 0.16 | pIC50 (D(2) dopamine receptor [4]): 5.15; pIC50 [5]: 6.42; pIC50 [6]: 7.37 |
| c1ccc2c(c1)CN(CC1CC3c4ccccc4Cc4ccccc4N3O1)C2 (stereo unspecified) | < 6.00 | < 6.00 | < 6.00 | > 2.5 |  |  |
| Clc1cccc(N2CCN(CC3CC4c5ccccc5Cc5ccccc5N4O3)CC2)c1 (stereo unspecified) | < 6.00 | < 6.00 | < 6.00 | > 2.5 |  |  |
| CN(C)CC1(C)CC2c3ccccc3Cc3ccccc3N2O1 (stereo in doubt; cis) [listing 1 of 2 here] |  |  |  | > 2.5 |  |  |
| CN(C)CCC1CC2c3ccccc3Cc3ccccc3N2O1 (stereo unspecified) | 7.08 | 7.04 | 7.43 | 2.5 | 2.5 | pIC50 [7]: < 6.00; pIC50 (D(3) dopamine receptor): < 6.00; pIC50 [8]: < 6.00; pIC50 (D(2) dopamine receptor [9]): < 6.00; pIC50 (D(2) dopamine receptor [4]): 5.02; pIC50 [5]: < 6.00; pIC50 [10]: 5.72; pIC50 [6]: < 6.00 |
| O=C1c2ccccc2C(=O)N1CC1CC2c3ccccc3Cc3ccccc3N2O1 (stereo unspecified) | < 6.00 | < 6.00 | < 6.00 | > 2.5 |  |  |
| CN(C)CC1CC2c3ccccc3Oc3ccc(Cl)cc3N2O1 (stereo unspecified) | 6.99 | 8.72 | 8.42 | > 2.5 | > 2.5 |  |
| CC(C)N(CC1CC2c3ccccc3Cc3ccccc3N2O1)C(C)C (stereo unspecified) | 6.82 | < 6.00 | 6.49 | > 2.5 |  |  |
| CN1CCN(CC2CC3c4ccccc4Cc4ccccc4N3O2)CC1 (stereo unspecified) |  | 6.55 | < 6.00 | > 2.5 | > 2.5 |  |
| CN(C)CC1(C)CC2c3ccccc3Cc3ccccc3N2O1 (stereo in doubt; cis) [listing 2 of 2 here] | 8.78 | 7.24 | 7.86 |  |  |  |
| CN(CC1CC2c3ccccc3Cc3ccccc3N2O1)C(=O)C(F)(F)F (stereo unspecified) | < 6.00 | < 6.00 | 6.16 | > 2.5 |  |  |
| c1ccc2c(c1)Cc1ccccc1N1OC(CN3CCNCC3)CC21 (stereo unspecified) | < 6.00 | < 6.00 | < 6.00 | > 2.5 |  |  |
| CN(C)CCCCC1CC2c3ccccc3Cc3ccccc3N2O1 (stereo unspecified) | < 6.00 | < 6.00 | < 6.00 | > 2.5 |  |  |
| c1ccc2c(c1)Cc1ccccc1N1OC(CN3CCCC3)CC21 (stereo unspecified) | 8.52 | 7.60 | 7.79 | > 2.5 | > 2.5 |  |
| c1ccc2c(c1)Cc1ccccc1N1OC(CN3CCOCC3)CC21 (stereo unspecified) | 7.58 | 6.85 | < 6.00 |  | 2.5 |  |
| NCC1CC2c3ccccc3Cc3ccccc3N2O1 (stereo unspecified) | 6.70 | 7.80 | 8.25 | > 2.5 |  |  |
| CN(C)CCCC1CC2c3ccccc3Cc3ccccc3N2O1 (stereo unspecified) | 6.17 | 8.41 | 7.73 | > 2.5 |  |  |
| CN(C)CC1(C)CC2c3ccccc3Cc3ccccc3N2O1 (stereo in doubt; trans) [listing 1 of 2 here] | 7.21 | < 6.00 | 6.03 |  | > 2.5 |  |
| CCN(CC)CC1CC2c3ccccc3Cc3ccccc3N2O1 (stereo unspecified) | 7.87 | 7.37 | 7.84 | 2.5 |  |  |
| CN(C)C(=O)C1CC2c3ccccc3Cc3ccccc3N2O1 (stereo unspecified) | < 6.00 | < 6.00 | < 6.00 | > 2.5 |  |  |
| CN(C)CC1(C)CC2c3ccccc3Cc3ccccc3N2O1 (stereo in doubt; trans) [listing 2 of 2 here] |  |  |  | > 2.5 |  |  |
| CN(C)CC1CC2c3ccccc3Cc3ccccc3N2O1 (trans isomer) | < 6.00 | < 6.00 | < 6.00 |  |  | ED50 (Rattus norvegicus): >2.5 mg/kg |
